Assay [1] deals with T1, recombinant human NK3 receptor (Homo sapiens, UniProt P29371).
T1 construct: expressed in transfected cells; host or cells: HEK293 cells (transient expression), membranes
T1 sequence (P29371 1-465): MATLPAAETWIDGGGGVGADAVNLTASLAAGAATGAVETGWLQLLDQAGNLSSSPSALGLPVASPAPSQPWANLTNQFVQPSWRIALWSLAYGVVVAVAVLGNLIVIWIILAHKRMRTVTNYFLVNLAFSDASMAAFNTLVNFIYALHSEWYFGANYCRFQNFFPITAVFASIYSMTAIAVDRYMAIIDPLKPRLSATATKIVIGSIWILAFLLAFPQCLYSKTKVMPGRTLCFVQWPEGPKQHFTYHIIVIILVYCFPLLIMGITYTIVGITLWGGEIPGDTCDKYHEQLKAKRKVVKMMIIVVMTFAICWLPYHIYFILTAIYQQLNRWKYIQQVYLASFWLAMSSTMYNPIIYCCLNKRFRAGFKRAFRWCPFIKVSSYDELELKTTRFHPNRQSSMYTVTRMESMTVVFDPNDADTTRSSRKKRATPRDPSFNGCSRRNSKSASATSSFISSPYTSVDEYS
Description: [3H]SR142801 competition binding assay. The note with it: hNK3 receptor, membranes from HEK293 cells transiently expressing the receptor, [3H]SR142801 radioligand. The protocol: [^3H]SR142801 Competition Binding Assay
hNK3 receptor binding experiment were performed using [^3H]SR142801 (Catalog No. TRK1035, specific activity: 74.0 Ci/mmol, Amersham, GE Healthcare UK limited, Buckinghamshire, UK) and membrane isolated from HEK293 cells transiently expressing recombinant human NK3 receptor. After thawing, the membrane homogenates were centrifuged at 48,000×g for 10 min at 4° C., the pellets were resuspended in the 50 mM Tris-HCl, 4 mM MnCl2, 1 μM phosphoramidon, 0.1% BSA binding buffer at pH 7.4 to a final assay concentration of 5 μg protein/well. For inhibition experiments, membranes were incubated with [^3H]SR142801 at a concentration equal to KD value of radioligand and 10 concentrations of the inhibitory compound (0.0003-10 μM) (in a total reaction volume of 500 μl) for 75 min at room temperature (RT). At the end of the incubation, membranes were filtered onto unitfilter (96-well white microplate with bonded GF/C filter preincubated 1 h in 0.3% PEI+0.3% BSA, Packard BioScience, Meriden, Conn.) with a Filtermate 196 harvester (Packard BioScience) and washed 4 times with ice-cold 50 mM Tris-HCl, pH 7.4 buffer. Nonspecific binding was measured in the presence of 10 μM SB222200 for both radioligands. The radioactivity on the filter was counted (5 min) on a Packard Top-count microplate scintillation counter with quenching correction after addition of 45 μl of microscint 40 (Can berra Packard S. A., Zürich, Switzerland) and shaking for 1 h. Inhibition curves were fitted according to the Hill equation: […]), where nH=slope factor using Excel-fit 4 software (Microsoft). IC50 values were derived from the inhibition curve and the affinity constant (Ki) values were calculated using the Cheng-Prussoff equation Ki=IC50/(1+[L]/KD) where [L] is the concentration of radioligand and KD is its dissociation constant at the receptor, derived from the saturation isotherm. All experiments were performed in duplicate and the mean±standard error (SEM) of the individual Ki values was calculated.

In the next assay the test system is schizophrenia. Particulars: phase II trial, cited from earlier work.

The term Ki denotes the equilibrium dissociation constant of an inhibitor or competing ligand from its target. Turning to `C[C@H](Oc1ccc(Cl)cn1)[C@H]1CN(C(=O)C2CCN(c3ccc(C#N)cn3)CC2)C[C@@H]1c1ccc(F)c(F)c1` [Example 20, 4-[(3R,4S)-3-[1-((S)-5-Chloro-pyridin-2-yloxy)-ethyl]-4-(3,4-difluoro-phenyl)-pyrrolidine-1-carbonyl]-3,4,5,6-tetrahydro-2H-[1,2′]bipyridinyl-5′-carbonitrile], the Ki in assay [1] came to 0.9 nM. As to `CC(=O)N(C)C1(c2ccccc2)CCN(CCC[C@]2(c3ccc(Cl)c(Cl)c3)CCCN(C(=O)c3ccccc3)C2)CC1` [SR 142,801, Osanetant], the “activity on positive symptoms of schizophrenia” value with schizophrenia (altered behaviour, delusion, hallucinations, extreme emotions, excited motor activity, incoherent speech) is given as “active”. The “activity in the treatment of negative symptoms” value with schizophrenia (depression, anhedonia, social isolation or memory and attention deficits) was “inactive”.

The values are drawn from US8394834B2, “Pyrrolidines as NK3 receptor antagonists” (Hoffman-La Roche Inc., priority 2009, dated 2013).
